Source: patent US6900219B2, “ABCA-1 elevating compounds” (CV Therapeutics, Inc., priority 2002, dated 2005)

Each compound was assayed on ABCA-1 gene (assay: compounds tested and found to elevate cellular expression of the ABCA-1 gene (Examples 1-6; test not named)).
Assay type: cell-based
Procedure: Activity testing is conducted as described in those patents and patent applications referenced above, and in the Examples below, and by methods apparent to one skilled in the art.

| SMILES | cellular expression of the ABCA-1 gene |
| --- | --- |
| N#Cc1ccc(C(=O)Nc2ncc(-c3ccccc3)s2)cc1 [(4-cyanophenyl)-N-(5-phenyl(1,3-thiazol-2-yl))carboxamide] | elevate cellular expression of the ABCA-1 gene |
| CCc1ccc(C(=O)NCCN(C(=O)Nc2ccc([N+](=O)[O-])cc2)c2ccccc2)cc1 [(4-ethylphenyl)-N-(2-{[N-(4-nitrophenyl)carbamoyl]phenylamino}ethyl)carboxamide] | elevate cellular expression of the ABCA-1 gene |
| CCc1ccc(C(=O)NCCN(C(=O)Nc2ccc(Oc3ccccc3)cc2)c2ccccc2)cc1 [(4-ethylphenyl)-N-(2-{phenyl[N-(4-phenoxyphenyl)carbamoyl]amino}ethyl) carboxamide] | elevate cellular expression of the ABCA-1 gene |
| CCc1ccc(C(=O)N(CCc2ccccn2)Cc2ccccc2[N+](=O)[O-])cc1 [(4-ethylphenyl)-N-[(2-nitrophenyl)methyl]-N-(2-(2-pyridyl)ethyl)carboxamide] | elevate cellular expression of the ABCA-1 gene |
| O=C(NC1=NCCS1)c1ccc(F)cc1 [(4-fluorophenyl)-N-(1,3-thiazolin-2-yl)carboxamide] | elevate cellular expression of the ABCA-1 gene |
| O=C1CSC(NC(=O)c2ccc(F)cc2)=N1 [(4-fluorophenyl)-N-(4-oxo(1,3-thiazolin-2-yl))carboxamide] | elevate cellular expression of the ABCA-1 gene |
| COc1ccc(C(=O)NC2=NCCS2)cc1 [(4-methoxyphenyl)-N-(1,3-thiazolin-2-yl)carboxamide] | elevate cellular expression of the ABCA-1 gene |
| COc1ccc(C(=O)NCCc2ccccn2)cc1 [(4-methoxyphenyl)-N-(2-(2-pyridyl)ethyl)carboxamide] | elevate cellular expression of the ABCA-1 gene |
| COc1ccc(C(=O)Nc2nc(-c3ccccc3)cs2)cc1 [(4-methoxyphenyl)-N-(4-phenyl(1,3-thiazol-2-yl))carboxamide] | elevate cellular expression of the ABCA-1 gene |
| Cc1ccc(C(=O)NC2=NCCS2)cc1 [(4-methylphenyl)-N-(1,3-thiazolin-2-yl)carboxamide] | elevate cellular expression of the ABCA-1 gene |
| Cc1ccc(C(=O)NCCc2ccccn2)cc1 [(4-methylphenyl)-N-(2-(2-pyridyl)ethyl)carboxamide] | elevate cellular expression of the ABCA-1 gene |
| Cc1ccc(C(=O)NC2=NC(=O)CS2)cc1 [(4-methylphenyl)-N-(4-oxo(1,3-thiazolin-2-yl))carboxamide] | elevate cellular expression of the ABCA-1 gene |
| O=C1CSC(NC(=O)c2ccc(OC(F)(F)F)cc2)=N1 [(4-trifluoromethoxyphenyl)-N-(4-oxo(1,3-thiazolin-2-yl))carboxamide] | elevate cellular expression of the ABCA-1 gene |
| N#Cc1c(NC(=O)c2ccc(Br)o2)sc2ccccc12 [(5-bromo(2-furyl)-N-(3-cyanobenzo[b]thiophen-2-yl)carboxamide] | elevate cellular expression of the ABCA-1 gene |
| CCCCNC(=O)N(Cc1ccco1)C(C)c1nc2cc(Cl)ccc2c(=O)n1-c1ccc(C)cc1 (stereo not drawn) [(butylamino)-N-{[7-chloro-3-(4-methylphenyl)-4-oxo(3-hydroquinazolin-2-yl)]ethyl}-N-(2-furylmethyl)carboxamide] | elevate cellular expression of the ABCA-1 gene |
| CCCCNC(=O)N(CCC(C)C)C(C)c1nc2cc(Cl)ccc2c(=O)n1-c1ccc(C)cc1 (stereo not drawn) [(butylamino)-N-{[7-chloro-3-(4-methylphenyl)-4-oxo(3-hydroquinazolin-2-yl)]ethyl}-N-(3-methylbutyl)carboxamide] | elevate cellular expression of the ABCA-1 gene |
| O=C(Nc1ccc2c(c1)CCC2)NC1CCCCC1 [(cyclohexylamino)-N-indan-5-ylcarboxamide] | elevate cellular expression of the ABCA-1 gene |
| CN(C)c1ccc(CN(C(=O)Nc2ccccc2F)c2ccc3c(c2)CCC3)cc1 [({[4-(dimethylamino)phenyl]methyl}indan-5-ylamino)-N-(2-fluorophenyl)carboxamide] | elevate cellular expression of the ABCA-1 gene |
| CCc1c(C(=O)NC(C)C(C)C)cnn1-c1nc(-c2ccc(C)cc2)cs1 (stereo not drawn) [N-(1,2-dimethylpropyl){5-ethyl-1-[4-(4-methylphenyl)(1,3-thiazol-2-yl)]pyrazol-4-yl}carboxamide] | elevate cellular expression of the ABCA-1 gene |
| O=C(Nc1nccs1)c1ccc(OC(F)(F)F)cc1 [N-(1,3-thiazol-2-yl)[4-(trifluoromethoxy)phenyl]carboxamide] | elevate cellular expression of the ABCA-1 gene |
| O=C(NC1=NCCS1)c1ccc(C(F)(F)F)cc1 [N-(1,3-thiazolin-2-yl)[4-(trifluoromethyl)phenyl]carboxamide] | elevate cellular expression of the ABCA-1 gene |

| SMILES | cellular expression of the ABCA-1 gene |
| --- | --- |
| CCCCN(CC(=O)N1CCc2ccccc2C1)C(=O)Nc1cccc(Cl)c1Cl [N-(2,3-dichlorophenyl)[butyl(2-oxo-2-(2-1,2,3,4-tetrahydroisoquinolyl)ethyl)amino]carboxamide] | elevate cellular expression of the ABCA-1 gene |
| Cc1ccc(C)c(NC(=O)c2sc3ccccc3c2Cl)c1 [N-(2,5-dimethylphenyl)(3-chlorobenzo[b]thiophen-2-yl)carboxamide] | elevate cellular expression of the ABCA-1 gene |
| Cc1cccc(C)c1NC(=O)c1sc2ccccc2c1Cl [N-(2,6-dimethylphenyl)(3-chlorobenzo[b]thiophen-2-yl)carboxamide] | elevate cellular expression of the ABCA-1 gene |
| O=C(Nc1cccc(Cl)c1)Nc1ccccc1Cl [N-(2-chlorophenyl)[(3-chlorophenyl)amino]carboxamide] | elevate cellular expression of the ABCA-1 gene |
| O=C(Nc1cccc(Cl)c1)Nc1ccccc1F [N-(2-fluorophenyl)[(3-chlorophenyl)amino]carboxamide] | elevate cellular expression of the ABCA-1 gene |
| COc1cc2c(cc1NC(=O)C(C)(C)C)oc1ccccc12 [N-(2-methoxydibenzo[b,d]furan-3-yl)-2,2-dimethylpropanamide] | elevate cellular expression of the ABCA-1 gene |
| CC(C)CN(C(=O)Nc1cccc2ccccc12)C(C)c1nc2ccccc2c(=O)n1-c1ccc2ccccc2c1 (stereo not drawn) [N-(2-methylpropyl)(naphthylamino)-N-[(3-(2-naphthyl)-4-oxo(3-hydroquinazolin-2-yl))ethyl]carboxamide] | elevate cellular expression of the ABCA-1 gene |
| CC(C)CN(C(=O)Nc1cccc(C(F)(F)F)c1)C(C)c1nc2ccccc2c(=O)n1-c1ccc2ccccc2c1 (stereo not drawn) [N-(2-methylpropyl)-N-[(3-(2-naphthyl)-4-oxo(3-hydroquinazolin-2-yl))ethyl]{[3-(trifluoromethyl)phenyl]amino}carboxamide] | elevate cellular expression of the ABCA-1 gene |
| CSc1ccc(NC(=O)N(CC(C)C)C(C)c2nc3ccccc3c(=O)n2-c2ccc3ccccc3c2)cc1 (stereo not drawn) [N-(2-methylpropyl)[(4-methylthiophenyl)amino]-N-[(3-(2-naphthyl)-4-oxo(3-hydroquinazolin-2-yl))ethyl]carboxamide] | elevate cellular expression of the ABCA-1 gene |
| O=C(Nc1ccc2c(c1)OCCO2)c1ccc([N+](=O)[O-])cc1Cl [N-(2H,3H-benzo[e]1,4-dioxan-6-yl)(2-chloro-4-nitrophenyl)carboxamide] | elevate cellular expression of the ABCA-1 gene |
| O=C(COCc1ccccc1)Nc1ccc2c(c1)OCCO2 [N-(2H,3H-benzo[e]1,4-dioxin-6-yl)-2-(phenylmethoxy)acetamide] | elevate cellular expression of the ABCA-1 gene |
| O=C(CCC1CCCC1)Nc1ccc2c(c1)OCCO2 [N-(2H,3H-benzo[e]1,4-dioxin-6-yl)-3-cyclopentylpropanamide] | elevate cellular expression of the ABCA-1 gene |
| CC(C)(C)c1ccc(C(=O)Nc2ccc3c(c2)OCCO3)cc1 [N-(2H,3H-benzo[e]1,4-dioxin-6-yl)[4-(tert-butyl)phenyl]carboxamide] | elevate cellular expression of the ABCA-1 gene |
| O=C(Nc1ccc2c(c1)OCCO2)Nc1ccccc1Br [N-(2H,3H-benzo[e]1,4-dioxin-6-yl)[(2-bromophenyl)amino]carboxamide] | elevate cellular expression of the ABCA-1 gene |
| O=C(Nc1ccc2c(c1)OCCO2)Nc1ccc([N+](=O)[O-])cc1Cl [N-(2H,3H-benzo[e]1,4-dioxin-6-yl)[(2-chloro-4-nitrophenyl)amino]carboxamide] | elevate cellular expression of the ABCA-1 gene |
| O=C(Nc1ccc(Cl)c(Cl)c1)Nc1ccc2c(c1)OCCO2 [N-(2H,3H-benzo[e]1,4-dioxin-6-yl)[(3,4-dichlorophenyl)amino]carboxamide] | elevate cellular expression of the ABCA-1 gene |
| O=C(Nc1ccc2c(c1)OCOC2)c1sc2ccccc2c1Cl [N-(2H,4H-benzo[e]1,3-dioxan-7-yl)(3-chlorobenzo[b]thiophen-2-yl)carboxamide] | elevate cellular expression of the ABCA-1 gene |
| O=C(Nc1cccc(O)c1)Nc1ccc(Cl)c(Cl)c1 [N-(3,4-dichlorophenyl)[(3-hydroxyphenyl)amino]carboxamide] | elevate cellular expression of the ABCA-1 gene |
| Cc1ccc(NC(=O)Nc2ccc(Cl)c(Cl)c2)cc1 [N-(3,4-dichlorophenyl)[(4-methylphenyl)amino]carboxamide] | elevate cellular expression of the ABCA-1 gene |
| O=C(NCC1CCCCC1)Nc1ccc(Cl)c(Cl)c1 [N-(3,4-dichlorophenyl)[(cyclohexylmethyl)amino]carboxamide] | elevate cellular expression of the ABCA-1 gene |
| Cc1ccc(NC(=O)c2ccc3ccccc3c2)cc1C [N-(3,4-dimethylphenyl)-2-naphthylcarboxamide] | elevate cellular expression of the ABCA-1 gene |
